From paper PMC8151276, “An Integrated Approach toward NanoBRET Tracers for Analysis of GPCR Ligand Engagement” (Molecules, 2021)

What was measured:
Format in all cases: binding
F2R = molecular target: T1, F2R (Homo sapiens, UniProt P25116); assay: NanoBRET screen HiBiT-F2R in HEK293; details: F2R
T1 construct: purchased Promega (in-house HiBiT-GPCR construct library, NanoBRET)
T1 sequence (P25116 22-425): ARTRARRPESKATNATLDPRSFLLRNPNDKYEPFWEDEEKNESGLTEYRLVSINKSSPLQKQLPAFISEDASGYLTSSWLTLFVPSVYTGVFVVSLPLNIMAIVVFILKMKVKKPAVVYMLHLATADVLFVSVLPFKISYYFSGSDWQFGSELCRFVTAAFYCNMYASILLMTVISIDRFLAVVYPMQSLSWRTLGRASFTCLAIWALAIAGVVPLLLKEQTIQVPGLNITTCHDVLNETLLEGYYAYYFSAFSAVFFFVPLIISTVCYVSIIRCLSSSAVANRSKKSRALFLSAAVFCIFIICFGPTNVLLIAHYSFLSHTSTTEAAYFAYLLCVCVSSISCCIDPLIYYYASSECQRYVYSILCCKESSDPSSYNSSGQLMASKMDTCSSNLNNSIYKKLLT
Experimental: (§1) Each tracer candidate was screened across the entire library of HiBiT-GPCR constructs using NanoBRET as the detection modality. As depicted in Figure 4A, the specificity of interactions was evaluated through decrease in BRET due to competitive displacement of a bound tracer by excess parental compound. Each tracer was analyzed for binding to each HiBiT-GPCR fusion in the absence and in the presence of competing parental compound. Briefly, HEK293 cells were transfected with HiBiT-GPCR constructs diluted into promoterless DNA to reduce expression and maximize translocation to the cell surface. Each tracer candidate was then screened at concentrations of 1 μM and 0.1 μM across cells expressing these fusions. Cells were treated for 1.5 h with tracer either alone or in the presence of 20 μM competing parental compound (i.e., control). BRET was measured upon addition of purified LgBiT and subsequent complementation with HiBiT genetically fused to a GPCR. The specificity of interactions was assessed through a decrease in BRET signal due to competitive displacement of the bound tracer. To further gauge the robustness of these interactions, the fold response over the control (i.e., BRETtracer/BRETcontrol) was calculated. We chose a 1.5-fold response, which translates to ≥7-fold signal over noise as the minimal threshold required to score an interaction as positive. […]. Below we highlight the screening results obtained for our exemplary fluorescent tracers based on Clozapine, Amitriptyline and AZD1283.
(§2) HiBiT-GPCR DNA constructs were diluted in 10 mM Tris pH 8 to a final concentration of 0.01 μg/μL, arrayed in 96-well plates and stored at −20 °C. For transfection, HEK293 cells were suspended in Opti-MEM (without phenol red) supplemented with 2% fetal bovine serum (Seradigm) and 100 units/mL penicillin–streptomycin (Gibco) at a final concentration of 220,000 cells/mL and dispensed into white 96-well plates at 90 μL/well. Subsequent transfections and screens were carried using an Agilent Bravo Automated Liquid Handling Platform. First, the 96-well HiBiT DNA arrays were diluted 25-fold in Opti-MEM (without serum or phenol red) to a final concentration of 0.0004 μg/μL and 20 μL of the diluted DNAs were transferred into new 96-well plates. Next, promoterless carrier DNA (1 μg/μL) was diluted 25-fold (0.04 μg/μL) and then dispensed into the diluted arrays at 20 μL/well. Following brief mixing, Viafect transfection reagent (Promega) diluted 16-fold into Opti-MEM was dispensed into the plates at 40 μL/well. After mixing by pipetting, plates were incubated for 10 min on the pipetting station deck. The DNA-transfection reagent complexes were then added to plates containing cells. To facilitate the screen, 10 μL of DNA-transfection reagent complexes were added in duplicates to the top 4 and bottom 4 rows, resulting in two identical 48-well arrays per plate. Plates with transfected cells were incubated for 18–20 h at 37 °C/5% CO2. A screen of each tracer across the entire library using two different concentrations requires duplicate plates of transfected cells. Depending on the number of tracers being screened, transfections can be scaled up using the same ratios. The next day, for each tracer, four 20× screening solutions in tracer dilution buffer (Promega) were prepared: two duplicates at final concentration of 20 μM and two duplicates at a final concentration of 2 μM. A competing unmodified compound was added to one of each duplicate at a final concentration of 400 μM. The four resulting solutions were diluted 4-fold in Opti-MEM without serum or phenol red to generate 5× solutions (5 µM and 0.5 µM tracer +/− 100 μM competing compound). To screen the library, a BioTek MultiFlo FX liquid dispenser was used to dispense 22.5 µL of tracer solution to the top 4 rows and 22.5 µL tracer + competing compound solution to the 4 bottom rows. Plates were briefly mixed on an orbital shaker and incubated for 1.5 h at room temperature. […]

VIPR2 = molecular target: T2, VIPR2 (Homo sapiens, UniProt P41587); assay: NanoBRET screen HiBiT-VIPR2 in HEK293; details: VIPR2
T2 construct: purchased Promega (in-house HiBiT-GPCR construct library, NanoBRET)
T2 sequence (P41587 24-438): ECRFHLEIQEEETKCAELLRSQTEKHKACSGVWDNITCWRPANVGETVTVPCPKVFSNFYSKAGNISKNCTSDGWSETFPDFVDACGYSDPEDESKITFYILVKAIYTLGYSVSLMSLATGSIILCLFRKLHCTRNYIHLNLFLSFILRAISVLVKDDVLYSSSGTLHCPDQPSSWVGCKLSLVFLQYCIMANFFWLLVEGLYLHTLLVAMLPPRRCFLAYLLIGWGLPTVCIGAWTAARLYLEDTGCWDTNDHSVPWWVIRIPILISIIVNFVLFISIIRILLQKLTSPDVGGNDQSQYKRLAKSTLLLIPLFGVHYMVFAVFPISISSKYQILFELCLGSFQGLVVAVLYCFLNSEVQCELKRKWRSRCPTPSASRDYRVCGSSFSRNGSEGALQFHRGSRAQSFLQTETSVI
Experimental: as §1, §2

BDKRB2 = molecular target: T3, BDKRB2 (Homo sapiens, UniProt P30411); assay: NanoBRET screen HiBiT-BDKRB2 in HEK293; details: BDKRB2
T3 construct: purchased Promega (in-house HiBiT-GPCR construct library, NanoBRET)
T3 sequence (P30411 1-391): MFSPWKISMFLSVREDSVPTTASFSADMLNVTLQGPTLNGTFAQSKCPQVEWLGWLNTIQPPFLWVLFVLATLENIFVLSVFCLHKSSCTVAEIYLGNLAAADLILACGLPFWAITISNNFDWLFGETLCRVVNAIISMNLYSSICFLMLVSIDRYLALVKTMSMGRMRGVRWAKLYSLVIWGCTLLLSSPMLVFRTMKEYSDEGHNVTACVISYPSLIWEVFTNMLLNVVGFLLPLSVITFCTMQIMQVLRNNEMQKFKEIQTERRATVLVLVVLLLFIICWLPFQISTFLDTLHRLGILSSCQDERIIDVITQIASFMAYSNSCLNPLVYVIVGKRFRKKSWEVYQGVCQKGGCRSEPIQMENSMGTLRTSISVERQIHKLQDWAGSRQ
Experimental: as §1, §2

PTGFR = molecular target: T4, PTGFR (Homo sapiens, UniProt P43088); assay: NanoBRET screen HiBiT-PTGFR in HEK293; details: PTGFR
T4 construct: purchased Promega (in-house HiBiT-GPCR construct library, NanoBRET)
T4 sequence (P43088 whole entry): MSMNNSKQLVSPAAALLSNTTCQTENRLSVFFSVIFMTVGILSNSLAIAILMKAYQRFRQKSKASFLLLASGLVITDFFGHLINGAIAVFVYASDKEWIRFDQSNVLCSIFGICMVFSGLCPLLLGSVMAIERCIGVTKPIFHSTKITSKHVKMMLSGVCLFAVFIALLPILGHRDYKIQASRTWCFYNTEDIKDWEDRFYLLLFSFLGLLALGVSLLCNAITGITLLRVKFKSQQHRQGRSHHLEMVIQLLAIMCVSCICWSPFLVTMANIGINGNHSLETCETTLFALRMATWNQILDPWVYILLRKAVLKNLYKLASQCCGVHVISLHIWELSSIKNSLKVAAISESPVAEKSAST
Experimental: as §1, §2

Structure (SMILES) | NanoBRET Fold Response (F2R; tracer 0.1μM) | NanoBRET Fold Response (F2R; tracer 1μM) | NanoBRET Fold Response (VIPR2; tracer 0.1μM) | NanoBRET Fold Response (VIPR2; tracer 1μM) | NanoBRET Fold Response (BDKRB2; tracer 0.1μM) | NanoBRET Fold Response (BDKRB2; tracer 1μM) | NanoBRET Fold Response (PTGFR; tracer 0.1μM) | NanoBRET Fold Response (PTGFR; tracer 1μM) | NanoBRET Fold Response (F2R; 0.1μM tracer) | NanoBRET Fold Response (F2R; 1μM tracer) | NanoBRET Fold Response (VIPR2; 0.1μM tracer) | NanoBRET Fold Response (VIPR2; 1μM tracer) | NanoBRET Fold Response (BDKRB2; 0.1μM tracer) | NanoBRET Fold Response (BDKRB2; 1μM tracer) | NanoBRET Fold Response (PTGFR; 0.1μM tracer) | NanoBRET Fold Response (PTGFR; 1μM tracer)
CC(C)N(CC[C@H](c1ccccc1)c1cc(CCNC(=O)c2ccc(CNC(=O)CCc3ccc4n3[B-](F)(F)[N+]3=C(c5ccc[nH]5)C=CC3=C4)cc2)ccc1O)C(C)C [Tolterodine-BZ-NB590] | 1.09 | 0.85 | 0.98 | 1.07 | 1.04 | 1.08 | 0.99 | 1.01 |  |  |  |  |  |  |  | 
CN1CCN(C2=Nc3cc(Cl)ccc3Nc3ccc(CNC(=O)CCOCCOCCOCCOCCNC(=O)CCc4ccc5n4[B-](F)(F)[N+]4=C(c6ccc[nH]6)C=CC4=C5)cc32)CC1 [Clozapine-b-2-NB590] |  |  |  |  |  |  |  |  | 1.02 | 1.01 | 1.02 | 0.96 | 1.00 | 1.00 | 1.02 | 1.07
